Columns and labels:
AHR [1] = assay: AHR activation in mouse intestine in vivo (Cyp1a1 expression by qRT-PCR); conditions: for Cyp1a1 expression in the intestinal epithelium: fed I3C 25 mg/kg/day or A18 300 mg/kg/day
Protocol: Hits were validated for activation of AHR signaling by oral gavage into neonatal C57/B16 mice (p11), and measuring the expression of the AHR activation reporter Cyp1a1 by qRT-PCR in the intestinal mucosa 24 hours later. The lead compound from these studies is herein labelled “A18”. Additionally, the mice were subjected to hypoxia (5% 02-95% N2) for 10 min in a hypoxia chamber (Billups-Rothenberg) twice daily for 4 days. […] To test the protective effect of breast milk on AHR signaling a NEC, human breast milk (Innovative Research) was supplemented to the formula at the final concentration of 5%. Endotoxemia was induced in neonatal mouse pups (p11) by administering 5 mg/kg lipopolysaccharides (LPS) via intraperitoneal injection, and ileal samples were harvested 6 hours after LPS treatments. […] I3C and A18 were administered to the pregnant mother daily until the offspring were studied further for experimental NEC or endotoxemia as above. […] The mRNA quantification was performed on the Bio-Rad CFX96 Real-Time System (Bio-Rad) using iTaqTM universal SYBR® Green supermix (Bio-Rad) and the primers listed in Table 1. The relative mRNA expression levels were normalized against the expression of the housekeeping gene ribosomal protein lateral stalk subunit P0 (Rplp0). For microRNA isolation, freshly harvested, snap-frozen ileal tissue was subjected to total RNA isolation using the RNeasy plus universal mini kit (Qiagen) and miRNA was quantified using miScript PCR starter kit (Qiagen) following the manufacturer's protocols. The relative miRNA expression levels were normalized against the expression of housekeeping miRNA miR-191.

mouse NEC model = assay: Experimental NEC in newborn mice (Example 1); format: in vivo
TLR4 [2] = assay: TLR4 signaling and Tlr4 expression in newborn mouse ileum in vivo (endotoxemia model, LPS)
Protocol: Endotoxemia was induced in neonatal mouse pups (p11) by administering 5 mg/kg lipopolysaccharides (LPS) via intraperitoneal injection, and ileal samples were harvested 6 hours after LPS treatments. […] I3C and A18 were administered to the pregnant mother daily until the offspring were studied further for experimental NEC or endotoxemia as above. […] The mRNA quantification was performed on the Bio-Rad CFX96 Real-Time System (Bio-Rad) using iTaqTM universal SYBR® Green supermix (Bio-Rad) and the primers listed in Table 1. The relative mRNA expression levels were normalized against the expression of the housekeeping gene ribosomal protein lateral stalk subunit P0 (Rplp0). For microRNA isolation, freshly harvested, snap-frozen ileal tissue was subjected to total RNA isolation using the RNeasy plus universal mini kit (Qiagen) and miRNA was quantified using miScript PCR starter kit (Qiagen) following the manufacturer's protocols. The relative miRNA expression levels were normalized against the expression of housekeeping miRNA miR-191.

AHR [3] = assay: AHR activation in human ileal explant culture (Cyp1a1 qRT-PCR); format: cell-based; conditions: 200 μM I3C or 20 μM A18, 15 minutes pre-treatment then 6 hours
Text: De-identified human ileal samples were collected via waiver of consent from the Office of Human Subjects Research Review Boards at Johns Hopkins University (IRB00094036), during surgery for NEC or at the time of stoma closure. For RNA isolation and qRT-PCR analysis, fresh samples were snapfrozen in liquid nitrogen immediately. For human explant culture, fresh ileum samples from NEC patients or patient undergoing stoma re-anastomosis were washed with sterile phosphate-buffered saline containing gentamycin (5 μg/mL), minced into 2- to 4-mm diameter pieces, and then cultured in Dulbecco's modified Eagle growth medium supplemented with 10% fetal bovine serum, 4 μg/mL human recombinant insulin and 100 μg/mL Primocin. […]
Total RNA was isolated using the RNeasy mini kit (Qiagen) and complementary DNA was synthesized from 0.5 μg RNA using QuantiTect Reverse Transcription kit (Qiagen) following the manufacturer's protocols. The mRNA quantification was performed on the Bio-Rad CFX96 Real-Time System (Bio-Rad) using iTaq™ universal SYBR® Green supermix (Bio-Rad) and the primers listed in Table 1. […] For microRNA isolation, freshly harvested, snap-frozen ileal tissue was subjected to total RNA isolation using the RNeasy plus universal mini kit (Qiagen) and miRNA was quantified using miScript PCR starter kit (Qiagen) following the manufacturer's protocols. […]

TLR4 [4] = assay: TLR4 signaling and expression in human ileal explant culture (LPS); format: cell-based
Text: De-identified human ileal samples were collected via waiver of consent from the Office of Human Subjects Research Review Boards at Johns Hopkins University (IRB00094036), during surgery for NEC or at the time of stoma closure. For RNA isolation and qRT-PCR analysis, fresh samples were snapfrozen in liquid nitrogen immediately. For human explant culture, fresh ileum samples from NEC patients or patient undergoing stoma re-anastomosis were washed with sterile phosphate-buffered saline containing gentamycin (5 μg/mL), minced into 2- to 4-mm diameter pieces, and then cultured in Dulbecco's modified Eagle growth medium supplemented with 10% fetal bovine serum, 4 μg/mL human recombinant insulin and 100 μg/mL Primocin. Human ilea explant cultures were then pre-treated with 200 μM I3C or 20 μM A18 for 15 minutes, and then with 50 μg/mL LPS for 6 hours, then processed for total RNA isolation followed by qRT-PCR.
(§1) Total RNA was isolated using the RNeasy mini kit (Qiagen) and complementary DNA was synthesized from 0.5 μg RNA using QuantiTect Reverse Transcription kit (Qiagen) following the manufacturer's protocols. The mRNA quantification was performed on the Bio-Rad CFX96 Real-Time System (Bio-Rad) using iTaq™ universal SYBR® Green supermix (Bio-Rad) and the primers listed in Table 1. The relative mRNA expression levels were normalized against the expression of the housekeeping gene ribosomal protein lateral stalk subunit P0 (Rplp0). For microRNA isolation, freshly harvested, snap-frozen ileal tissue was subjected to total RNA isolation using the RNeasy plus universal mini kit (Qiagen) and miRNA was quantified using miScript PCR starter kit (Qiagen) following the manufacturer's protocols. The relative miRNA expression levels were normalized against the expression of housekeeping miRNA miR-191.

AHR [5] = assay: AHR activation in IEC-6 enterocytes (Cyp1a1 expression); format: cell-based, rat; conditions: A18, 6 hours
Protocol: The intestinal epithelial cells line IEC-6 (ATCC CRL-1592) was stably transduced with lentiviral particles containing Cignal Lenti XRE Reporter (luc) (Qiagen). Cells were treated serially with individual chemicals contained within the Johns Hopkins Drug Library (JHDL), which contains a series of FDA-approved drugs, Chong et al., 2006, (kindly provided by Dr. Jun O. Liu, Johns Hopkins University) at 10 μM for 24 hours, and the luciferase activity was quantified using the SpectraMax M3 (Molecular Devices).
as §1

[6] = cited from earlier work
[7] = A18 administered during pregnancy
[8] = wild-type newborn mice, A18 300 mg/kg body weight/day for 4 days, oral

Cyp1a1 expression in the offspring pup intestine (AHR [1]; A18 administered during pregnancy, 300 mg/kg body weight/day): induced the expression of Cyp1a1 | Cyp1a1 expression in the intestinal epithelium (AHR [1]; Ahr^−/− newborn mice): not | Cyp1a1 expression in the intestinal epithelium (AHR [1]; wild-type newborn (p11) mice): induced the expression of Cyp1a1 | Cyp1a1 expression in human intestinal explant cultures (AHR [3]): significantly induced Cyp1a1 expression | Cyp1a1 expression in IEC-6 enterocytes (AHR [5]): induced the expression of Cyp1a1
Compound: Cc1c(OCC(F)(F)F)ccnc1C[S+]([O-])c1nc2ccccc2[nH]1 (centres unmarked) [A18, Lansoprazole]
Tlr4 expression in the neonatal gut (NEC) (mouse NEC model; [7]): reduced | Tnf-a expression in the neonatal gut (NEC) (mouse NEC model; [7]): reduced Tnf-a | histology and NEC severity (mouse NEC model; [7]): improved histology and NEC severity | NEC severity in the offspring (mouse NEC model; A18 administered during pregnancy (M-A18, 300 mg/kg body weight/day)): significantly reduced NEC severity | prevention and treatment of NEC in mouse models (mouse NEC model; summary statement): effectively prevented and treated NEC | NEC severity (mouse NEC model; wild-type mice, oral to pups during NEC induction: I3C 25 mg/kg/day, A18 300 mg/kg/day, or human breast milk 5% in formula): significantly reduced NEC severity | NEC severity score (mouse NEC model; [8]): improved NEC severity score | expression of I16 (NEC) (mouse NEC model; [8]): reduced expression of I16 | histology of the terminal ileum (NEC) (mouse NEC model; [8]): improved histology | Tlr4 expression in the intestinal mucosa / newborn ileum (TLR4 [2]; wild-type mice, fed I3C or A18): reduced Tlr4 expression | TLR4 (LPS)-induced 116 expression in the intestine (TLR4 [2]; wild-type newborn mice, fed A18 (300 mg/kg/day) or oral breast milk): significantly reduced TLR4-induced 116 expression | Tlr4 expression in human intestine ex vivo (TLR4 [4]; 20 μM A18, LPS 50 μg/mL for 6 hours): significantly reduced | LPS-induced Tnf-a expression in human intestinal explant cultures (TLR4 [4]; 200 μM I3C or 20 μM A18, LPS 50 μg/mL for 6 hours): significantly reduced LPS-induced Tnf-a expression | inflammation in the intestine of human resected at the time of surgery for NEC (TLR4 [4]; summary statement): dampened inflammation | bound in human plasma ([6]; human plasma): approximately 97% | plasma elimination half-life ([6]; in humans): approximately 2 h | absorption ([6]; in vivo): rapidly absorbed | metabolism by CYP3A4 and CYP2C18 ([6]; in vivo): extensively metabolized
